Test: Metabolic stability test (microsomal metabolism test)
Format: in vitro ADME
Settings: pH 7.4; human-derived liver microsomes, test compound remaining after addition of NADP+ and incubation at 37°C for 30 minutes; read-out: metabolic stability of T/C%
Experimental: (Test Example 3 Metabolic stability test) 100 µL of 100 mM phosphate buffer solution (pH 7.4) containing 3 µM test compound was added to 100 µL of reaction solution containing 100 mM phosphate buffer solution (pH 7.4), 30 mM glucose 6-phosphate, 10 mM MgCl2·6H2O, 3 units/mL glucose 6-phosphate 1-dehydrogenase, and 0.3 to 1.5 mgP/mL human liver microsomes and the mixture was incubated at 37°C for 20 minutes. Then, 70 µL of 100 mM phosphate buffer solution (pH 7.4) containing 3 mM NADP^+ was added and the mixture was incubated at 37°C for 30 minutes to conduct a microsomal metabolism test. The metabolic stability was calculated according to the following formula: T/C (%) = ((concentration of test compound after addition of NADP)^+and incubation for30minutes)/((concentration of test compound before addition of NADP)^+) × 100. [formula] […]

SMILES	remaining at 0.5 h [%]
CC(C)C1=C(C(=O)N2[C@H](C)CC[C@H]2C(=O)N2CCN(CCO)C3(CC3)C2)SC2=N[C@@](C)(c3ccc(Cl)nc3)[C@@H](c3ccc(Cl)c(F)c3)N21 [Example 13]	≥ 50
CC(C)C1=C(C(=O)N2[C@H](C)CC[C@H]2C(=O)N2C[C@H](C)NC3(CC3)C2)SC2=N[C@@](C)(c3ccc(Cl)nc3)[C@@H](c3ccc(Cl)c(F)c3)N21 [Example 19, (5S)-7-[(5R)-1-([(5R,6S)-5-(4-chloro-3-fluorophenyl)-6-(6-chloropyridin-3-yl)-3-isopropyl-6-methyl-5,6-dihydroimidazo[2,1-b][1,3]thiazol-2-yl]carbonyl}-5-methyl-L-prolyl]-5-methyl-4,7-diazaspiro[2.5]octane]	≥ 50
CCN(C(=O)C1=C(C(C)C)N2C(=N[C@@](C)(c3ccc(Cl)cc3)[C@H]2c2ccc(Cl)cc2)S1)C1(C(=O)N2CCNC3(CC3)C2)CC1 [Example 50, (5R,6S)-5,6-bis(4-chlorophenyl)-N-[1-(4,7-diazaspiro[2.5]oct-7-ylcarbonyl)cyclopropyl]-N-ethyl-3-isopropyl-6-methyl-5,6-dihydroimidazo[2,1-b][1,3] thiazole-2-carboxamide]	≥ 50
CC(C)C1=C(C(=O)N2C[C@@H]3C[C@@H]3[C@H]2C(=O)N2CC3(CC3)NC[C@@H]2C)SC2=N[C@@](C)(c3ccc(Cl)nc3)[C@@H](c3ccc(Cl)c(F)c3)N21 [Example 69, (65)-7-{[(1S,25,5R)-3-{[(5R,65)-5-(4-chloro-3-fluorophenyl)-6-(6-chloropyridin-3-yl)-3-isopropyl-6-methyl-5,6-dihydroimidazo[2,1-b][1,3]thiazol-2-yl]carbonyl}-3-azabicyclo[3.1.0]hex-2-yl]carbonyl}-6-methyl-4,7-diazaspiro[2.5]octane]	≥ 50
CC(C)C1=C(C(=O)N2[C@H](C)CC[C@H]2C(=O)N2CC3(CC3)N(C(=O)C(F)(F)F)C[C@@H]2C)SC2=N[C@@](C)(c3ccc(Cl)nc3)[C@@H](c3ccc(Cl)c(F)c3)N21 [Example 60, (6S)-7-[(5R)-1-{[(5R, 6S)-5-(4-chloro-3-fluorophenyl)-6-(6-chloropyridin-3-yl)-3-isopropyl-6-methyl-5,6-dihydroimidazo[2,1-b][1,3]thiazol-2-yl]carbonyl}-5-methyl-L-prolyl]-6-methyl-4-(trifluoroacetyl)-4,7-diazaspiro[2.5]octane]	≥ 50
CC(C)C1=C(C(=O)N2[C@@H]3C[C@@H]3C[C@H]2C(=O)N2CC3(CC3)NC[C@@H]2C)SC2=N[C@@](C)(c3ccc(Cl)nc3)[C@@H](c3ccc(Cl)c(F)c3)N21 [Example 70, (6S)-7-{[(1R,3S,5R)-2-{[(5R,6S)-5-(4-chloro-3-fluorophenyl)-6-(6-chloropyridin-3-yl)-3-isopropyl-6-methyl-5,6-dihydroimidazo[2,1-b][1,3]thiazol-2-yl]carbonyl}-2-azabicyclo[3.1.0]hex-3-yl]carbonyl}-6-methyl-4,7-diazaspiro[2.5]octane]	≥ 50
CCN1CCN(C(=O)[C@@H]2CC[C@@H](C)N2C(=O)C2=C(C(C)C)N3C(=N[C@@](C)(c4ccc(Cl)nc4)[C@H]3c3ccc(Cl)c(F)c3)S2)CC12CC2 [Example 14, 7-[(5R)-1-{[(5R,6S)-5-(4-chloro-3-fluorophenyl)-6-(6-chloropyridin-3-yl)-3-isopropyl-6-methyl-5,6-dihydroimidazo[2,1-b][1,3]thiazol-2-yl]carbonyl}-5-methyl-L-prolyl]-4-ethyl-4,7-diazaspiro[2.5]octane]	≥ 50
CC(C)C1=C(C(=O)N2[C@H](C)CC[C@H]2C(=O)N2CCNC3(CC3)C2)SC2=N[C@@](C)(c3ccc(Cl)cc3)[C@@H](c3ccc(Cl)c(F)c3)N21 [Example 5, 7-[(5R)-1-{[(5R,6S)-5-(4-chloro-3-fluorophenyl)-6-(4-chlorophenyl)-3-isopropyl-6-methyl-5,6-dihydroimidazo[2,1-b][1,3]thiazol-2-yl]carbonyl}-5-methyl-L-prolyl]-4,7-diazaspiro[2.5]octane]	≥ 50
CC(C)C1=C(C(=O)N2[C@H](C)CC[C@H]2C(=O)N2CCNC3(CC3)C2)SC2=N[C@@](C)(c3ccc(C#N)cc3)[C@@H](c3ccc(Cl)cc3)N21 [Example 28, 4-[(5R,6S)-5-(4-chlorophenyl)-2-{[(2S,5R)-2-(4,7-diazaspiro[2.5]oct-7-ylcarbonyl)-5-methylpyrrolidin-1-yl]carbonyl}-3-isopropyl-6-methyl-5,6-dihydroimidazo[2,1-b][1,3]thiazol-6-yl]benzonitrile]	≥ 50
CC(C)C1=C(C(=O)N2[C@H](C)CC[C@H]2C(=O)N2CCN(CCO)C3(CC3)C2)SC2=N[C@@](C)(c3ccc(Cl)cc3)[C@@H](c3ccc(Cl)c(F)c3)N21 [Example 7, 2-{7-[(5R)-1-{[(5R,6S)-5-(4-chloro-3-fluorophenyl)-6-(4-chlorophenyl)-3-isopropyl-6-methyl-5,6-dihydroimidazo[2,1-b][1,3]thiazol-2-yl]carbonyl}-5-methyl-L-prolyl]-4,7-diazaspiro[2.5]oct-4-yl}ethanol]	≥ 50
CC(C)C1=C(C(=O)N2[C@H](C)CC[C@H]2C(=O)N2CCNC3(CC3)C2)SC2=N[C@@](C)(c3ccc(Cl)c(N)c3)[C@@H](c3ccc(Cl)c(F)c3)N21 [Example 27, 2-chloro-5-[(5R,6S)-5-(4-chloro-3-fluorophenyl)-2-{[(2S,5R)-2-(4,7-diazaspiro[2.5]oct-7-ylcarbonyl)-5-methylpyrrolidin-1-yl]carbonyl}-3-isopropyl-6-methyl-5,6-dihydroimidazo[2,1-b][1,3]thiazol-6-yl]aniline]	≥ 50
CC(C)C1=C(C(=O)N2[C@@H](C)CC[C@H]2C(=O)N2CC3(CC3)NC[C@@H]2C)SC2=N[C@@](C)(c3ccc(Cl)nc3)[C@@H](c3ccc(Cl)c(F)c3)N21 [Example 65, (6S)-7-[(5S)-1-{[(5R,6S)-5-(4-chloro-3-fluorophenyl)-6-(6-chloropyridin-3-yl)-3-isopropyl-6-methyl-5,6-dihydroimidazo[2,1-b][1,3]thiazol-2-yl]carbonyl}-5-methyl-L-prolyl]-6-methyl-4,7-diazaspiro[2.5]octane]	≥ 50
CCN(C(=O)C1=C(C(C)C)N2C(=N[C@@](C)(c3ccc(Cl)nc3)[C@H]2c2ccc(Cl)c(F)c2)S1)C1(C(=O)N2CCNC3(CC3)C2)CC1 [Example 53, (5R,6S)-5-(4-chloro-3-fluorophenyl)-6-(6-chloropyridin-3-yl)-N-[1-(4,7-diazaspiro[2.5]oct-7-ylcarbonyl)cyclopropyl]-N-ethyl-3-isopropyl-6-methyl-5,6-dihydroimidazo[2,1-b][1,3]thiazole-2-carboxamide]	≥ 50
CC[C@@H]1CC[C@@H](C(=O)N2CCNC3(CC3)C2)N1C(=O)C1=C(C(C)C)N2C(=N[C@@](C)(c3ccc(Cl)nc3)[C@H]2c2ccc(Cl)c(F)c2)S1 [Example 32, 7-[(5R)-1-{[(5R,6S)-5-(4-chloro-3-fluorophenyl)-6-(6-chloropyridin-3-yl)-3-isopropyl-6-methyl-5,6-dihydroimidazo[2,1-b][1,3]thiazol-2-yl]carbonyl}-5-ethyl-L-prolyl]-4,7-diazaspiro[2.5]octane]	≥ 50

Source: EP2298778A1, “IMIDAZOTHIAZOLE DERIVATIVE HAVING 4,7-DIAZASPIROÝ2.5¨OCTANE RING STRUCTURE” (Daiichi Sankyo Company, Limited, priority 2008, dated 2009)
